From article PMC3005002 (Glia, 2011)

Molecular target: T1, NCC69 (HA:NCC69) (Drosophila melanogaster, UniProt Q9VTW8)
T1 sequence (Q9VTW8 1-1171): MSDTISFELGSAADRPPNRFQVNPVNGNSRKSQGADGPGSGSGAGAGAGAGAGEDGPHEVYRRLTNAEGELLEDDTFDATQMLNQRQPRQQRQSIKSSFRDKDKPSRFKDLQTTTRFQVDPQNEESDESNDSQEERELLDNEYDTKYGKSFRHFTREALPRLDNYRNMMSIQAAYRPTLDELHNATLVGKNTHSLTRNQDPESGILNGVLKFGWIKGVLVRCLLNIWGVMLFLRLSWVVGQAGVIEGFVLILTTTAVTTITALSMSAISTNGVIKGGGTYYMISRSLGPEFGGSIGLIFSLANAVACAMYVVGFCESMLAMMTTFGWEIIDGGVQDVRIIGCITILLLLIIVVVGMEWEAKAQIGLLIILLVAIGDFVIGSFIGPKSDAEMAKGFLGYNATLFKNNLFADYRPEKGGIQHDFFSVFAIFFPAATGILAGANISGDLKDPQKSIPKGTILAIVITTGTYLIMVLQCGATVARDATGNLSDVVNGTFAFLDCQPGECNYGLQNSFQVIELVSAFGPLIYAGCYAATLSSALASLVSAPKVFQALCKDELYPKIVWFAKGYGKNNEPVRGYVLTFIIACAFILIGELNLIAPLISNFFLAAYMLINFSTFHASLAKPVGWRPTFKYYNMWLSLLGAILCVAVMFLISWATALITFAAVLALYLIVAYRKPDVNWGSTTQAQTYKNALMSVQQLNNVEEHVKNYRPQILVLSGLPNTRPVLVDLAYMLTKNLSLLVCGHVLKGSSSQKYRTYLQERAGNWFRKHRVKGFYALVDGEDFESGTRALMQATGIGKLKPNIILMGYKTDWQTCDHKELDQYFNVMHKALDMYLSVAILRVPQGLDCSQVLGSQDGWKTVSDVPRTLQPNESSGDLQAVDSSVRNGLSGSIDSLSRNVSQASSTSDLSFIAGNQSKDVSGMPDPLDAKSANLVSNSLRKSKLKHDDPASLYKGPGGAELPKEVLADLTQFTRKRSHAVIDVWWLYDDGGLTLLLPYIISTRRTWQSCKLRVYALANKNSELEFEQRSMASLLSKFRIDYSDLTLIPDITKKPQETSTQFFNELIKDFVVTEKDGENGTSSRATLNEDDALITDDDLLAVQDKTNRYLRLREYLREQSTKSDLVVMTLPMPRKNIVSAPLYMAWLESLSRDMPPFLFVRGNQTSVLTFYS
Assay: […] influx inhibition in stably transfected SL2 cells
Type: cell-based

Ki: 49 nM
Compound: CCCCNc1cc(C(=O)O)cc(S(N)(=O)=O)c1Oc1ccccc1 [bumetanide]
